Like-named read-outs stand apart in the source and are kept apart here.
Assays:
Test in all cases: Kinase inhibition profile (HTRF / ADP Glo kinase assay)
Format in all cases: biochemical
[1] = target: FGFR1 (Homo sapiens (Human), UniProt P11362)
Method: (§1) HTRF kinase assay: 2×ATP and substrate solution as well as 2× kinase and metal solution were prepared with assay buffer. 25 nL of compound was transferred to 384-well assay plate by Echo 655. After centrifugation, 2.5 μL of 2× kinase/metal ion solution was added to the 384-well assay plate followed by incubation at 25° C. for 10 min. 2.5 μL of 2× substrate and ATP solution was added to the wells followed by incubation at 25° C. for 60 min. 2× XL665 and antibody solution was prepared with assay buffer. 5 μL of kinase detection reagent was added to the wells followed by incubation at 25° C. for 60 min. Fluorescence signals at 620 nm (Cryptate) and 665 nm (XL665) were read with a microtiter plate reader. ADP Glo kinase assay: 2×ATP and substrate solution as well as 2× kinase and metal solution were prepared with assay buffer. 20 nL of compound was transferred to 384-well assay plate by Echo 655. 2 μL of 2× kinase/metal ion solution was added followed by incubation at 25° C. for 10 min in the 384-well assay plate. 2 μL of 2× substrate and ATP solution was added to the wells followed by incubation at 25° C. for 60 min. 4 μL of ADP Glo reagent was added to the wells followed by incubation at 25° C. for 40 min. 8 μL of kinase test reagent was added to the wells followed by incubation at 25° C. for 40 min. The luminescence signals were recorded on a microtiter plate reader. Data analysis: the reaction control (0.5% DMSO) reading was set to 0% inhibition, and the background (10 μM positive control) reading was set to 100% inhibition, then the percent inhibition for each test solution was calculated and the results are shown in Table 2 and FIG. 3.

[2] = target: p38α (Homo sapiens (Human), UniProt Q16539)
Method: as §1

[3] = target: HPK1 (Homo sapiens (Human), UniProt Q92918)
Method: as §1

[4] = target: CK1γ2 (Homo sapiens (Human), UniProt P78368)
Method: as §1

[5] = target: ABL1 (Homo sapiens (Human), UniProt P00519)
Method: as §1

[6] = target: ALK 4 (Homo sapiens (Human), UniProt P36896)
Method: as §1

[7] = target: CDK5/p35NCK (Homo sapiens (Human), UniProt Q00535)
Method: as §1

[8] = target: PKCα (Homo sapiens (Human), UniProt P17252)
Method: as §1

[9] = target: EGFR (Homo sapiens (Human), UniProt P00533)
Method: as §1

[10] = target: AXL (Homo sapiens (Human), UniProt P30530)
Method: as §1

[11] = target: JAK3 (Homo sapiens (Human), UniProt P52333)
Method: as §1

[12] = target: PKD2 (Homo sapiens (Human), UniProt Q9BZL6)
Method: as §1

[13] = target: PKACα (Homo sapiens (Human), UniProt P17612)
Method: as §1

[14] = target: MAP2K1 (Homo sapiens (Human), UniProt Q02750)
Method: as §1

[15] = target: HGK (Homo sapiens (Human), UniProt O95819)
Method: as §1

[16] = target: NEK2 (Homo sapiens (Human), UniProt P51955)
Method: as §1

[17] = target: SGK (Homo sapiens (Human), UniProt O00141)
Method: as §1

[18] = target: CDK1/CycE1 (Homo sapiens (Human), UniProt P06493)
Method: as §1

[19] = 1 uM Compound C1, read-out: % Inhibition (First measurement)
[20] = 1 uM Compound C1, read-out: % Inhibition (Second measurement)
[21] = 1 uM Compound C1, read-out: Average inhibition (%)

JAK3, sequence (P52333 whole entry, species assumed): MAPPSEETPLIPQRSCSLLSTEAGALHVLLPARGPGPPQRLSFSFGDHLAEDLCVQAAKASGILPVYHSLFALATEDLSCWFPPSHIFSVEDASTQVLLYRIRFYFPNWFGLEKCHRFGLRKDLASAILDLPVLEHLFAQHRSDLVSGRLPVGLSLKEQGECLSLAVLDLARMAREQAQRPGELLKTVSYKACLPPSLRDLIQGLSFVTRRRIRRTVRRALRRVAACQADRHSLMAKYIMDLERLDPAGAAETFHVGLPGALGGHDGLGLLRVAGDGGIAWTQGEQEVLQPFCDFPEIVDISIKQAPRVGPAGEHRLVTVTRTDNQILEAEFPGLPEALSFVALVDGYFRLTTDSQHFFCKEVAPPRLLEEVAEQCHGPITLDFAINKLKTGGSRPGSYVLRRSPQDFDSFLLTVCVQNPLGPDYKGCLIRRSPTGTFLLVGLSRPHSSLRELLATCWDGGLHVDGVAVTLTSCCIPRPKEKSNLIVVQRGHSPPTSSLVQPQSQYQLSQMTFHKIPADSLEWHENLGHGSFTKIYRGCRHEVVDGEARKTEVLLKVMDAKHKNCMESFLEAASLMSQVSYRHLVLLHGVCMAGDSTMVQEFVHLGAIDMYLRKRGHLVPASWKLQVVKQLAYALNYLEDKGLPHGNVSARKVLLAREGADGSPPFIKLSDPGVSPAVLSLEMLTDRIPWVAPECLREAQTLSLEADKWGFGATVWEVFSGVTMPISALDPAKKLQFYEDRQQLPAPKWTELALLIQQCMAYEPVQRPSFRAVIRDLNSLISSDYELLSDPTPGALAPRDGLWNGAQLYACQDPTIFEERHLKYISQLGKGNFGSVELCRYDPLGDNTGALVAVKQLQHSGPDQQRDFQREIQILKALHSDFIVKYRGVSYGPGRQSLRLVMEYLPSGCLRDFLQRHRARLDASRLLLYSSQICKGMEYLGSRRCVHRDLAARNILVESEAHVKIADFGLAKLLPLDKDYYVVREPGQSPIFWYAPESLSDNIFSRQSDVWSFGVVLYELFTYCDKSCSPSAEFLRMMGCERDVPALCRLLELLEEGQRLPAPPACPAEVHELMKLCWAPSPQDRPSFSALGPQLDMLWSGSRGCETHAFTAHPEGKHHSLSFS
ALK 4, sequence (P36896 24-505, species assumed): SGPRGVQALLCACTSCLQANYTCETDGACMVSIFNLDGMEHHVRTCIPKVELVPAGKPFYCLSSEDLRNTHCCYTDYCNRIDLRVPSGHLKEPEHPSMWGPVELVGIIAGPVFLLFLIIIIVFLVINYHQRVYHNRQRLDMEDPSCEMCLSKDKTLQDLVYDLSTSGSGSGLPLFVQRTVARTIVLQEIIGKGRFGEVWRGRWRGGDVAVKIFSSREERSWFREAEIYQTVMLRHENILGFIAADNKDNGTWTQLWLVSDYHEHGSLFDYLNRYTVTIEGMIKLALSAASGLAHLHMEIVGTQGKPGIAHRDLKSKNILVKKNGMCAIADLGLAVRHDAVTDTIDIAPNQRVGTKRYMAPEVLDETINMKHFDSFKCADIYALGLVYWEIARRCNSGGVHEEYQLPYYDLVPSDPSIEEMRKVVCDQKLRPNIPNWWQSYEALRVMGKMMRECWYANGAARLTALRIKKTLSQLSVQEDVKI
SGK, sequence (O00141 whole entry, species assumed): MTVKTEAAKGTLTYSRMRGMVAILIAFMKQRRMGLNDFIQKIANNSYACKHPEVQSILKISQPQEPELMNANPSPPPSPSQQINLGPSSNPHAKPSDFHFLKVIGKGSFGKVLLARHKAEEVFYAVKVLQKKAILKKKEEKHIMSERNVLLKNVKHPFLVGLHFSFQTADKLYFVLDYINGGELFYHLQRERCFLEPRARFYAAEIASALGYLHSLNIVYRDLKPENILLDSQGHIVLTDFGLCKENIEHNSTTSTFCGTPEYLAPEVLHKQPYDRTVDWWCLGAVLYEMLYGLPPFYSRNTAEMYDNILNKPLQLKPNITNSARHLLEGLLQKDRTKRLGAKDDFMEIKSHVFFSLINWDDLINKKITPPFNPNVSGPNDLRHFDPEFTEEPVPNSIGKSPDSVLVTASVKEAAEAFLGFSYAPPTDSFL
MAP2K1, sequence (Q02750 whole entry, species assumed): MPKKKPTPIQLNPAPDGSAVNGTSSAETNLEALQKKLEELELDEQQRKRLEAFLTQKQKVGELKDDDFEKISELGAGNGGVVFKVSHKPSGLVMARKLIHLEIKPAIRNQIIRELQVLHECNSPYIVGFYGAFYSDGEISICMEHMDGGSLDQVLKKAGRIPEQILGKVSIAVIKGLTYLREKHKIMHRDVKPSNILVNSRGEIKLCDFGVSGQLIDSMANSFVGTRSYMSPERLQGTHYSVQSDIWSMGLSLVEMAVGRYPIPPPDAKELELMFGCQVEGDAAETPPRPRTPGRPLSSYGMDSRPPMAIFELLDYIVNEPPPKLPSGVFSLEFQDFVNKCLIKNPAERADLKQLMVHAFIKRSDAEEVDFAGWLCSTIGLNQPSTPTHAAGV
p38α, sequence (Q16539 whole entry): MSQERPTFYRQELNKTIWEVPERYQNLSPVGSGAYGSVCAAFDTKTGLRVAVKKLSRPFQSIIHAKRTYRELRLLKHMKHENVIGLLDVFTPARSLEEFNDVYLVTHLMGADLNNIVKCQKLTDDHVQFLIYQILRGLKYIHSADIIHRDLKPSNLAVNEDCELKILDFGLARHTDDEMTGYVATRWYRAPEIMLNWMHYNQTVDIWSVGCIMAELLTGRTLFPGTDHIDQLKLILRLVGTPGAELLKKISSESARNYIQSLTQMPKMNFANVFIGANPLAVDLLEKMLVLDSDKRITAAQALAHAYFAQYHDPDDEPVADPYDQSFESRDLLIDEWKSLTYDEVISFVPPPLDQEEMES
AXL, sequence (P30530 26-894, species assumed): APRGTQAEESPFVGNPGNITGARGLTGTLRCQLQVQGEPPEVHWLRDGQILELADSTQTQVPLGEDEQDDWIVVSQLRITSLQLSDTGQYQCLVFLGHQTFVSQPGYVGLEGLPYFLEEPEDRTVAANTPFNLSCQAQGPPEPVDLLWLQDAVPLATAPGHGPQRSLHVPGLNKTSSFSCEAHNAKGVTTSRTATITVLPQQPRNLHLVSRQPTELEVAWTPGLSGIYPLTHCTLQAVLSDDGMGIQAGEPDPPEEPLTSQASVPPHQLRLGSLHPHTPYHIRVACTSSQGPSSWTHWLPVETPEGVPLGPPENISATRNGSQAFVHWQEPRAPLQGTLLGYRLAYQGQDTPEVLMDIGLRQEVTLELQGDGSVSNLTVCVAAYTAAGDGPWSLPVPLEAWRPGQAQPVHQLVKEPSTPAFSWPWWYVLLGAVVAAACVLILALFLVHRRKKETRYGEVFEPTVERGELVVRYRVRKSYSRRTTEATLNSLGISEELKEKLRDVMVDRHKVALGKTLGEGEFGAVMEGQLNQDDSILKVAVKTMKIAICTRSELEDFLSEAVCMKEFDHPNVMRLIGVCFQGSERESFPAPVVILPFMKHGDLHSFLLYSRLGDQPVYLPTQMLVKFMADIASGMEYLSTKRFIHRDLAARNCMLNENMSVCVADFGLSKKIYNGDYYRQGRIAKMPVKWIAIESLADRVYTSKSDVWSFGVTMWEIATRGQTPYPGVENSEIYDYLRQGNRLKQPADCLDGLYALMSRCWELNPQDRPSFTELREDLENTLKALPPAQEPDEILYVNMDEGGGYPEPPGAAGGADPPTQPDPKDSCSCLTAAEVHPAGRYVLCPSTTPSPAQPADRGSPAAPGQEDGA
EGFR, sequence (P00533 25-1210, species assumed): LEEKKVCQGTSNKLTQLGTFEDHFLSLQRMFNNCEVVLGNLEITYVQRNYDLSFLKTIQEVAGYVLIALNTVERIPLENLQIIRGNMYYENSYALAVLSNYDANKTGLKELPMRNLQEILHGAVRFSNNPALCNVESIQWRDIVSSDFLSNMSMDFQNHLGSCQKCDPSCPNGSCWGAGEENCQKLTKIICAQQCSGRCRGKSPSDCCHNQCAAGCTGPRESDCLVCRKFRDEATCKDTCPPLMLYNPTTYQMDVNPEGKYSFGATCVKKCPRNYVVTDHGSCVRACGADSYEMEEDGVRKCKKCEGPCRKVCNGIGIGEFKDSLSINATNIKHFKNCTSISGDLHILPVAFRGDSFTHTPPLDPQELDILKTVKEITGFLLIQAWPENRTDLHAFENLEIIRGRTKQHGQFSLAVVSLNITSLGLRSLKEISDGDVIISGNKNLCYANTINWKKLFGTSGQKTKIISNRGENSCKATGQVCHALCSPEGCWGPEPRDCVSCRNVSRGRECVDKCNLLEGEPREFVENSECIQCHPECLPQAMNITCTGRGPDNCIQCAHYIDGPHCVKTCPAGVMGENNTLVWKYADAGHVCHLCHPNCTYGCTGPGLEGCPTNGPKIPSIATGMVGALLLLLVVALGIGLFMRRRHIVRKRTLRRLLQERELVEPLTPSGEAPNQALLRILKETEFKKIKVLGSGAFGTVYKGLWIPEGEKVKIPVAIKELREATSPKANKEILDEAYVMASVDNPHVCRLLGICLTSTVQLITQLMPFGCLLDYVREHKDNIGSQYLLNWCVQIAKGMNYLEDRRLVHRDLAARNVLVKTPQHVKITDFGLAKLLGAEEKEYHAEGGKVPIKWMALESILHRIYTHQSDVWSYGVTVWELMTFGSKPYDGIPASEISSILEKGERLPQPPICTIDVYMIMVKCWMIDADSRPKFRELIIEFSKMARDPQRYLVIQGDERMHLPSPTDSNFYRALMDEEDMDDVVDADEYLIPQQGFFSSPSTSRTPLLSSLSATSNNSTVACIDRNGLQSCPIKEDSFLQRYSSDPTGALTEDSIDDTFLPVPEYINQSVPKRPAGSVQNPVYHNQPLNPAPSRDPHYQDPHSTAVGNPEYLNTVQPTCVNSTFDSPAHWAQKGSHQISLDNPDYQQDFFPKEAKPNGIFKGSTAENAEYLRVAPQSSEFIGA

inhibition at 1 µM [1, 19]: 0.18% | inhibition at 1 µM [1, 20]: -18.2% | inhibition at 1 µM [1, 21]: -9.02% | inhibition at 1 µM [2, 19]: 3.39% | inhibition at 1 µM [2, 20]: -3.27% | inhibition at 1 µM [2, 21]: 0.06% | inhibition at 1 µM [3, 19]: 23.9% | inhibition at 1 µM [3, 20]: 24.7% | inhibition at 1 µM [3, 21]: 24.3% | inhibition at 1 µM [4, 19]: -6.26% | inhibition at 1 µM [4, 20]: -6.88% | inhibition at 1 µM [4, 21]: -6.57% | inhibition at 1 µM [5, 19]: 43.2% | inhibition at 1 µM [5, 20]: 50.7% | inhibition at 1 µM [5, 21]: 47% | inhibition at 1 µM [6, 19]: -6.24% | inhibition at 1 µM [6, 20]: 14.8% | inhibition at 1 µM [6, 21]: 4.25% | inhibition at 1 µM [7, 19]: 31.2% | inhibition at 1 µM [7, 20]: 31.2% | inhibition at 1 µM [7, 21]: 31.2% | inhibition at 1 µM [8, 19]: -1.67% | inhibition at 1 µM [8, 20]: -17.2% | inhibition at 1 µM [8, 21]: -9.44% | inhibition at 1 µM [9, 19]: -6.86% | inhibition at 1 µM [9, 20]: 1.78% | inhibition at 1 µM [9, 21]: -2.54% | inhibition at 1 µM [10, 19]: 15.1% | inhibition at 1 µM [10, 20]: 13.3% | inhibition at 1 µM [10, 21]: 14.2% | inhibition at 1 µM [11, 19]: -1.28% | inhibition at 1 µM [11, 20]: 2.46% | inhibition at 1 µM [11, 21]: 0.59% | inhibition at 1 µM [12, 19]: -7.86% | inhibition at 1 µM [12, 20]: -6.58% | inhibition at 1 µM [12, 21]: -7.22% | inhibition at 1 µM [13, 19]: -4.44% | inhibition at 1 µM [13, 20]: -1.87% | inhibition at 1 µM [13, 21]: -3.15% | inhibition at 1 µM [14, 19]: -5.72% | inhibition at 1 µM [14, 20]: -3.53% | inhibition at 1 µM [14, 21]: -4.62% | inhibition at 1 µM [15, 19]: 18.5% | inhibition at 1 µM [15, 20]: 17% | inhibition at 1 µM [15, 21]: 17.7% | inhibition at 1 µM [16, 19]: 8.18% | inhibition at 1 µM [16, 20]: 2.89% | inhibition at 1 µM [16, 21]: 5.54% | inhibition at 1 µM [17, 19]: -8.79% | inhibition at 1 µM [17, 20]: -6.61% | inhibition at 1 µM [17, 21]: -7.7% | inhibition at 1 µM [18, 19]: 11.9% | inhibition at 1 µM [18, 20]: 20.1% | inhibition at 1 µM [18, 21]: 16%
SMILES: Cc1ccc(C(=O)Nc2ccccn2)cc1C#Cc1cnc2cc(C3=CCCCC3)cnn12 [Compound C1, 3-{2-[7-(cyclohex-1-en-1-yl)imidazo[1,2-b]pyridazin-3-yl]ethynyl}-4-methyl-N-(pyridin-2-yl)benzamide]

Source: patent publication US20240300958A1, “COMPOUNDS AND THE USES AND PHARMACEUTICAL COMPOSITIONS THEREOF” (BEIJING YOUZHUJU NETWORK TECHNOLOGY CO. LTD., priority 2023, published 2024)
